Measurements reported in patent publication US11028369B2, “Induced extended pluripotent stem cells, method of making and using” (Beihao Stem Cell and Regenerative Medicine Research …, priority 2015, dated 2021).
Counter-ions that a name gives are not always drawn.

What was measured:
hEPS cells = assay: Maintenance of hEPS cells after withdrawal or replacement of DiM or MiH; format: cell-based, human; settings: for maintenance of hEPS cells when DiM or MiH is replaced: inhibitor of the same target replaces DiM or MiH in LCDM; for maintenance of hEPS cells when DiM is replaced by MAPK signaling inhibitor: replacement of DiM
Method: FIGS. 4A and 4B show the profiles of H3K4me3 and H3K27me3 chromatin marks over all genes in primed hES (n=2, technical replicates) and hEPS (n=2, technical replicates) cells. The standard error of mean (SEM) across the regions is calculated and shown as a semi-transparent shade around the mean curve. FIGS. 4C-D are bar graphs showing Q-PCR analysis of selected gene expression in hEPS cells under different conditions at passage 7. DiM (((S)-(+)-Dimethindene maleate) (FIG. 4C) and MiH (Minocycline hydrochloride) (FIG. 4D) were replaced with small molecules targeting to the same targets in the LCDM [hLIF (human leukemia inhibitory factor), CHIR99021, DiM, and MiH] condition. hEPS cells were cultured under LCM condition with an added small molecule selected from: DiM (2 μM), TH(5 μM), DES(5 μM), or cultured with DMSO (dimethyl sulfoxide) respectively (FIG. 4C) or under LCD condition with an added small molecule selected from MiH, BSI-201 (5 μM), NAM (100 μM), PJ34 (N-(6-Oxo-5,6-dihydro-phenanthridin-2-yl)-N,N-dimethylacetamide. HCl) (5 μM), or DMSO (FIG. 4D). Expression values are normalized to the mean value of the LCM+DiM (FIG. 4C) and LCD+MiH (FIG. 4D) sample. LCM: human LIF+CHIR99021+MiH; LCD: human LIF+CHIR99021+DiM. Center values indicate mean. Error bars indicate s.d. (n=3, technical replicates). TH: Tripelennamine HCL; DES: Desloratadine; BSI: BSI-201; NAM: Nicotinamide. […] Expression values are normalized to the mean value of the scramble control. Center values indicate mean. Error bars indicate s.d. (n=3, technical replicates). FIG. 4F is a bar graph showing a summary of chimera assays at E12.5. […] FIG. 4G is a bar graph showing a summary of chimeric assays of single-cell injection at the 8-cell embryo stage. […] ICM & TE, embryos with the integration of mouse cells into both ICM and TE.
Human and mouse extended pluripotent stem cells were cultured in serum-free N2B27-LCDM medium in 20% O2, 5% CO2 conditions. To maintain human EPS cells in an undifferentiated state, the following criteria were used: a) avoidance of plating human EPS cells too sparsely; b) use of the proper quantity of freshly prepared MEF feeder cells; and c) not allowing human EPS cells to overgrow (for example, attain more than 90% confluence; preferably, the cells should be at less than 90% confluent). Accordingly, human and mouse EPS cells were cultured on mitomycin C-inactivated mouse embryonic fibroblast (MEF) feeder cells (3×10^4 cells per cm^2), and were passaged by single-cell trypsinization (0.05% trypsin-EDTA, Invitrogen) every 2-4 days (normally at a split ratio of 1:6 to 1:10). Passage numbers of EPS cells indicate number of passages counted after the acquirement of the extended pluripotent state. The N2B27-LCDM medium was changed every day with fresh LCDM medium.
Finally, the roles of DiM and MiH in maintaining EPS cells were investigated. […] Furthermore, similar results were obtained when MiH was replaced by the knockdown of PARP1 in hEPS cells (FIG. 4E). Importantly, both mEPS and hEPS cells still retained their ability of contributing to both TE and ICM in blastocysts under such conditions (FIG. 6C, 6D, and data not shown).

primed hES/hPS H9 cells = assay: Screen for dome-shaped hES colony formation / TGFβ signaling-independent self-renewal; format: cell-based, human; settings: hLIF+2i + candidate with SB431542
Text: Primed hES are flat colonies. By contrast, naïve human pluripotent cells are dome-shaped colonies. Therefore, any resultant human EPS cells can be morphologically distinguished from primed human pluripotent stem cells.
Positive candidates from the first screen above were further screened in order to identify small molecules that support TGFβ signaling-independent self-renewal of hES cells (Tesar, et al., Dev., 448:196-199 (2007); James, et al.,Dev., 132:1273-1282 (2005); Vallier, et al., J. Cell. Sci., 118:4495-4509 (2005)). A TGFβ inhibitor SB431542 was added to the chemical cocktail (2i+LIF+candidate) at the later stage of treatment (FIG. 1A).
Specifically, primed hES/hPS H9 cells were digested into single cells using ACCUTASE® (cell detachment solution), and seeded into a matrigel-coated 24-well plate (1×10^4 cells per well) on day 0 in conventional hES medium plus Y27632. On day 1, the conventional hES medium was replaced by the N2B27 medium supplemented with the hLIF+2i base, and candidates from the first round screen were added individually into each well. The medium was changed every two days and replaced with fresh N2B27 medium supplemented with hLIF+2i. 6 days later (i.e., on day 7), a TGF (transforming growth factor) β inhibitor, SB431542 (10 μm, Tocris), was added into wells with un-differentiated cells for another 6 days. […]

mEPS cells = assay: Chimeric analysis of mEPS cells cultured under different conditions (injection into 8-cell embryos); format: cell-based, mouse; settings: chimeric blastocysts; for developmental potency of mEPS cells when DiM is replaced by MAPK signaling inhibitor: replacement of DiM
Method: FIGS. 6A and 6B show PCA of RNA-seq and microarray data from EPS cells and known pluripotent cell types. […] Data were normalized to mES cells in each study. […] Data were normalized to primed hPSCs in each study. […] Circles: RNA-seq data; triangles: microarray data. […] Parp1 knockout mEPS cells (Parp1-KO) were cultured in LCDM condition without MiH (-MiH). mEPS cells were cultured under different conditions for at least 5 passages before injection. Multiple cells were injected into 8-cell embryos, which were cultured for additional 60 hours before further analysis. […] ICM & TE, embryos with the integration of mouse cells into both ICM and TE. […] ICM & TE, embryos with the integration of mouse cells into both ICM and TE. TH: TripelennamineHCL; DES: Desloratadine; NAM: Nicotinamide. PD: PD0325901; SB: SB203580; SP: SP600125.
For injection of Tdtomato-labeled mEPS cells and conventional naïve mouse ES cells, mEPS and naïve mouse ES cells were trypsinized and microinjected in the same way as for hEPS cells except that Y27632 was not added into the suspension.
The cells used in this experiment were cultured and prepared in a way that was similar to that of the multiple-cell microinjections. The cell suspension was placed on ice for 20-30 minutes before injection. After being placed on ice, the digested single cells were used for injection within 1 hour: in other words, the whole injection process should not take more than 30 minutes. Afterward, the injected embryos are recovered for 1-2 hours in a humidified incubator with 5% CO2 at 37° C. If the cells were placed on ice for more than 1 hour, then another batch of cells was digested for the remaining injections. […] After 60 hours, the embryos were fixed and immunostained.

[1] = withdrawal of either DiM or MiH

Q: For NC(=O)c1ccc(I)c([N+](=O)[O-])c1 [BSI-201, 4-iodo-3-nitrobenzamide], which “maintenance of hEPS cells when DiM or MiH is replaced” value (hEPS cells) is on record?
A: Its value is “could be replaced with other inhibitors targeting the same targets for the maintenance of hEPS cells”.

Q: Clc1ccc2c(c1)CCc1cccnc1C2=C1CCNCC1 [Desloratadine] was tested. Which “maintenance of hEPS cells when DiM or MiH is replaced” value (hEPS cells) did it give?
A: The value was “could be replaced with other inhibitors targeting the same targets for the maintenance of hEPS cells”.

Q: Which “effect of withdrawal from LCDM on hEPS cells” value (hEPS cells; [1]) does the source give for C[C@@H](C1=C(CCN(C)C)Cc2ccccc21)c1ccccn1.O=C(O)/C=C\C(=O)O [DiM, (S)-(+)-Dimethindene maleate] here?
A: Its value is “rapid differentiation of hEPS cells within days after plating”.

Q: What about the “dome-shaped hES colony formation” value (primed hES/hPS H9 cells) of the same molecule?
A: The value was “support dome-shaped hES colony formation”.

Q: And the “effect of withdrawal from LCDM on developmental potency of mEPS cells” value (mEPS cells; [1])?
A: The value was “significantly impaired the developmental potency of mEPS cells”.

Q: With NC(=O)c1cccnc1 [Nicotinamide] as the molecule, how does the “maintenance of hEPS cells when DiM or MiH is replaced” value (hEPS cells) read?
A: The value was “could be replaced with other inhibitors targeting the same targets for the maintenance of hEPS cells”.

Q: O=C(NOC[C@H](O)CO)c1ccc(F)c(F)c1Nc1ccc(I)cc1F [PD0325901] was tested. Which “maintenance of hEPS cells when DiM is replaced by MAPK signaling inhibitor” value (hEPS cells) did it give?
A: Its value is “could not maintain hEPS cells”.

Q: What about the “developmental potency of mEPS cells when DiM is replaced by MAPK signaling inhibitor” value (mEPS cells) of the same molecule?
A: Its value is “could not preserve the developmental potency of mEPS cells”.

Q: Which “maintenance of hEPS cells when DiM is replaced by MAPK signaling inhibitor” value (hEPS cells) does the source give for C[S+]([O-])c1ccc(-c2nc(-c3ccncc3)c(-c3ccc(F)cc3)[nH]2)cc1 (centres unmarked) [SB203580] here?
A: Its value is “could not maintain hEPS cells”.

Q: What about the “developmental potency of mEPS cells when DiM is replaced by MAPK signaling inhibitor” value (mEPS cells) of the same molecule?
A: The value was “could not preserve the developmental potency of mEPS cells”.

Q: With CN(C)CCN(Cc1ccccc1)c1ccccn1 [TripelennamineHCL, Tripelennamine HCL] as the molecule, how does the “maintenance of hEPS cells when DiM or MiH is replaced” value (hEPS cells) read?
A: Its value is “could be replaced with other inhibitors targeting the same targets for the maintenance of hEPS cells”.
